Holding throughout (assay type): in vivo
In one test the test system is beef taste recombinate. The test is described as follows: Effect of Alapyridaine on the taste profile of a beef broth taste recombinate. The settings on record: pH 5. The text has this:
The beef taste recombinate (K. Shima et al., J. Agric. Food. Chem. 1998, 46, 1465–1468) consisting of 16 amino acids, 4 sugars, three 5′-nucleotides, 3 carbonic acids, 3 salts, and 4 other compounds was used as a sample having a basic brothy taste at pH 5, i.e. (in mg/L water) threonine (68), serine (38), MSG (64), proline (16), glycine (56), alanine (192), valine (34), methionine (20), isoleucine (16), leucine (28), tyrosine (38), phenylalanine (26), lysine hydrochloride (44), histidine (38), arginine (32), taurine (248), ribose (4), mannose (8), fructose (20), glucose (40), IMP.2Na.5H20 (424), GMP.2Na7H20 (80), AMP (60), pyroglutamic acid (1296), lactic acid (3567), succinic acid (98), NaCl (854), KCl (3940), MgCl2.6H20 (1104), CaCl2.2H20 (14), H3PO4, carnosine (912), creatine (1106), and creatinine (572) were dissolved in 1 L of water, and the pH was adjusted to 5.0.
The sensory panel was asked to score the given taste qualities of the biomimetic beef taste recombinate on a scale from 0 (not detectable) to 5 (strong). To study the influence of Alapyridaine on the taste qualities of that recombinate, a triangle test was performed with two glass vials containing the pure beef taste recombinate, and one glass vial containing the beef taste recombinate plus a known amount of Alapyridaine. […]

The subject of the next test is sweet taste of glucose. Nature of the test: Iso-intensity: relative sweetness of glucose/Alapyridaine mixtures. How it is done:
• Sensory panel training: […] Sensory analyses were performed in a sensory panel room at 22-25° C. on three different sessions. • Taste thresholds: The taste thresholds of the tastants or mixtures containing basic tastants plus Pyridinium-Betains were determined in a triangle test using Evian® mineral water as the solvent at a defined pH ([…] and H.-D. Belitz, Z. Lebensm. Unters. Forsch. 1975, 159, 65-72). The samples (3 mL) were presented in order of increasing concentrations (serial 1:1 dilutions). The threshold values evaluated in two different sessions were averaged. […] The taste intensities of aqueous (Evian®) solutions containing a basic tastant, such as glucose and MSG, for example, in constant concentrations and the compounds of the general formula (A), for example […], in various concentrations were compared with those of a solution containing the basic tastant only. […] The relative taste strength (taste enhancing factor) of a mixture containing the basic […] was related to the basic tastants glucose, MSG, or other tastants, respectively, as standard substances, and was determined as the ratio of the concentrations c of iso-intensely tasting solutions of the basic tastant, such as glucose (glc), and the mixture containing tastant plus Pyridinium-Betain, […])=[…] […]

For a further test, the system named is salty taste of NaCl. The test is described as follows: Salt taste detection threshold of NaCl/Pyridinium-Betaine mixtures (triangle test, sensory panel). The settings on record: mixture with NaCl, pH 7.0.
For the next test, the system named is umami taste of MSG. The test is described as follows: Umami taste detection threshold of MSG/Pyridinium-Betaine mixtures (triangle test, sensory panel). The settings on record: equimolar mixture with MSG; for Threshold decrease: vs MSG in water 1.5 mmol/L. How it is done: • Sensory panel training: […] Sensory analyses were performed in a sensory panel room at 22-25° C. on three different sessions. • Taste thresholds: The taste thresholds of the tastants or mixtures containing basic tastants plus Pyridinium-Betains were determined in a triangle test using Evian® mineral water as the solvent at a defined pH ([…] and H.-D. Belitz, Z. Lebensm. Unters. Forsch. 1975, 159, 65-72). The samples (3 mL) were presented in order of increasing concentrations (serial 1:1 dilutions). The threshold values evaluated in two different sessions were averaged. […] The taste intensities of aqueous (Evian®) solutions containing a basic tastant, such as glucose and MSG, for example, in constant concentrations and the compounds of the general formula (A), for example […], in various concentrations were compared with those of a solution containing the basic tastant only. To achieve this, triangle tests were performed with two glass vials containing the basic tastant in constant concentrations, and one glass vial containing a stepwise 1:1-diluted mixture of basic […]. […] The relative taste strength (taste enhancing factor) of a mixture containing the basic […] was related to the basic tastants glucose, MSG, or other tastants, respectively, as standard substances, and was determined as the ratio of the concentrations c of iso-intensely tasting solutions of the basic tastant, such as glucose (glc), and the mixture containing tastant plus Pyridinium-Betain, […])=[…] […] This taste enhancing effect is illustrated in examples. Pyridinium-Betaines not only enhance the sweet taste perception, but also the umami taste.

The values that follow come from US7175872B2, “Pyridinium-Betain compounds for use as taste modulators” (Nestec S.A., priority 2002, dated 2007).

Structures can show the parent of a compound that is named as a salt.

Regarding `CC(C(=O)[O-])[n+]1cc(O)ccc1CO` (stereo not shown) [Alapyridaine, N-(1-carboxyethyl)-3-hydroxy-6-hydroxymethyl-pyridinium inner salt], the “effect on taste profile of beef taste recombinate” value is “increased the umami character and decreased the sour note” in the test on beef taste recombinate (0.5 mg/L Alapyridaine added); “more intense umami, sweet and salty taste and a reduced sourness” in the test with beef taste recombinate (5 mg/L Alapyridaine added). Moreover, the “relative sweetness (iso-intensity)” value in the test on sweet taste of glucose (80 mmol/kg glucose and 125 mmol/kg Alapyridaine vs 80 mmol/kg glucose) is listed as 8 -fold. For the same compound, the “maximum relative sweetness (iso-intensity)” value in the test with sweet taste of glucose (267 mmol/kg glucose and 125 mmol/kg Alapyridaine vs reference solution 267 mmol/kg glucose) was 5.3 -fold. In addition, the Salt detection threshold in the test on salty taste of NaCl is 2.0 mmol/kg water. Moreover, the Taste quality entry in the test on salty taste of NaCl was “salty”; in the test with umami taste of MSG (pH 5.0), “umami”; with umami taste of MSG (pH 7.0), “umami”; in the test with umami taste of MSG (pH 9.0), “umami”. Also, the Threshold decrease with salty taste of NaCl (vs NaCl in water 10.0 mmol/L) worked out at 5.0; in the test on umami taste of MSG (pH 5.0) it was 4.0; in the test with umami taste of MSG (pH 7.0), 4.0; with umami taste of MSG (pH 9.0), 4.0. Besides, the Umami detection threshold in the test on umami taste of MSG (pH 5.0), with umami taste of MSG (pH 7.0) and in the test on umami taste of MSG (pH 9.0) was 0.4 mmol/kg water in each case.
